The record followed here is BindingDB's records for doi:10.1021/jm00037a021 (Rhône-Poulenc Rorer, 1994).

In this experiment the target is cGMP-specific 3',5'-cyclic phosphodiesterase PDE V (Sus scrofa). Nature of the experiment: Inhibitory potency against pig aortic PDE V.

Bounds are passed on as bounds.

As usually defined, the IC50 is the concentration needed to halve the response being measured. Higher therefore signals lower potency. Turning to `COc1ccc(C(=O)Nc2cccc(Cl)c2Cl)cc1OC1CCCC1` [3-Cyclopentyloxy-N-(2,3-dichloro-phenyl)-4-methoxy-benzamide], the IC50 was greater than 200 µM.

In the case of `COc1ccc(C(=O)Nc2ccc(Cl)cc2)cc1OC1CCCC1` [N-(4-Chloro-phenyl)-3-cyclopentyloxy-4-methoxy-benzamide], the IC50 is greater than 1000 µM.

For `COC(=O)c1ccccc1NC(=O)c1ccc(OC)c(OC2CCCC2)c1` [2-(3-Cyclopentyloxy-4-methoxy-benzoylamino)-benzoic acid methyl ester], the IC50 was 5.5 µM.

Regarding `COc1ccc(C(=O)Nc2c(C)cccc2Cl)cc1OC1CCCC1` [N-(2-Chloro-6-methyl-phenyl)-3-cyclopentyloxy-4-methoxy-benzamide], the IC50 is greater than 1000 µM.

Consider `COc1ccc(C(=O)Nc2ccccc2O)cc1OC1CCCC1` [3-Cyclopentyloxy-N-(2-hydroxy-phenyl)-4-methoxy-benzamide], for which the IC50 is 175 µM.

In the case of `COc1ccc(C(=O)Nc2ccccc2C(=O)c2ccccc2)cc1OC1CCCC1` [N-(2-Benzoyl-phenyl)-3-cyclopentyloxy-4-methoxy-benzamide], the IC50 was 2.5 µM.

For `COc1ccc(C(=O)Nc2ccccc2F)cc1OC1CCCC1` [3-(cyclopentyloxy)-N-(2-fluorophenyl)-4-methoxybenzamide], the IC50 is greater than 1000 µM.

As for `COc1ccc(C(=O)Nc2ccccc2Br)cc1OC1CCCC1` [N-(2-Bromo-phenyl)-3-cyclopentyloxy-4-methoxy-benzamide], the IC50 is greater than 1000 µM.

The molecule `COc1ccc(C(=O)Nc2ccc(C)cc2)cc1OC1CCCC1` [3-Cyclopentyloxy-4-methoxy-N-p-tolyl-benzamide] returned an IC50 greater than 200 µM.

For the molecule `COc1ccc(C(=O)Nc2c(F)cccc2F)cc1OC1CCCC1` [3-Cyclopentyloxy-N-(2,6-difluoro-phenyl)-4-methoxy-benzamide], the IC50 was greater than 1000 µM.

Molecule `COc1ccc(C(=O)Nc2cccc(Cl)c2)cc1OC1CCCC1` [N-(3-Chloro-phenyl)-3-cyclopentyloxy-4-methoxy-benzamide] displayed a half-maximal inhibitory concentration (IC50) greater than 40 µM.

With `COc1ccc(C(=O)Nc2ccccc2C)cc1OC1CCCC1` [3-Cyclopentyloxy-4-methoxy-N-o-tolyl-benzamide], the IC50 is greater than 1000 µM.

As to `COc1ccc(C(=O)Nc2ccccc2Cl)cc1OC1CCCC1` [N-(2-Chloro-phenyl)-3-cyclopentyloxy-4-methoxy-benzamide], the IC50 is greater than 200 µM.

`COc1ccc(C(=O)Nc2ccccc2C(F)(F)F)cc1OC1CCCC1` [3-Cyclopentyloxy-4-methoxy-N-(2-trifluoromethyl-phenyl)-benzamide] had an IC50 greater than 1000 µM.

In the case of `COc1ccc(C(=O)Nc2ccc(F)cc2)cc1OC1CCCC1` [3-Cyclopentyloxy-N-(4-fluoro-phenyl)-4-methoxy-benzamide], the IC50 was greater than 1000 µM.

With `COc1ccc(C(=O)Nc2ccccc2SC)cc1OC1CCCC1` [3-Cyclopentyloxy-4-methoxy-N-(2-methylsulfanyl-phenyl)-benzamide], the IC50 was greater than 200 µM.

For `COc1ccc(C(=O)Nc2c(F)cccc2Cl)cc1OC1CCCC1` [N-(2-Chloro-6-fluoro-phenyl)-3-cyclopentyloxy-4-methoxy-benzamide], the IC50 is greater than 1000 µM.
